Test results taken from patent US4931292A, “Method of preparing iron(III) phosphate compounds for iron fortification of food products” (EKA Nobel AB, priority 1986, dated 1990).
Entries after “also recorded” stand apart in the source; their conditions may differ.

Assays:
[1] = humans; literature or background statement; cited from earlier work
[2] = Solubility in artificial gastric environment (0.1M HCl, pH 1, 37° C.); format: physicochemical; conditions: for % Solubility 10 min / % Solubility 30 min / % Solubility 60 min: 0.1M HCl, pH=1, 37° C.; for solubility at pH 1 / in 0.1M HCl / gastric environment (in words): pH 1 (0.1M HCl)
Procedure: Here, solubility tests for some commercially used iron(III)phosphates have also been included.
The compound examined in Example 1 was also measured as a reference substance (compound A)

[3] = Examination of bioavailability in humans: absorption of 55Fe-labelled iron compound and 59Fe-labelled native iron from iron-fortified buns; format: in vivo; conditions: for Absorption, Fortification: fortification iron (55Fe)
Procedure: The examination was carried out by the technique described in the above-mentioned paper by Hallberg et al.
The iron compound to be tested is labelled with radioactive iron, ^55 Fe, in the synthesis of the compound used. This iron is used to fortify flour from which buns are made by standard procedures, for example as follows: ______________________________________ Ingredients Parts by weight ______________________________________ wheat-flour 100 sugar 3.5 salt 1.0 yeast 6.5 water 83 iron source 6.5 ^- 10^-3 ______________________________________
The iron occurring naturally (native iron) in wheat-flour is labelled by adding tracer amounts of ^59 Fe-labelled iron(III)chloride. The buns are thus made of flour which is labelled with two different radioactive isotopes.
The ingredients are mixed, and the dough is allowed to rise for 30 minutes. After the usual kneading, the dough is placed in small aluminium baking tins where the dough pieces are allowed to rise for another 30 minutes. The dough pieces in the baking tins are subsequently baked at a temperature of 250° C. for 10 minutes
These double-labelled buns are served a group of test subjects, for breakfast with coffee, margarine and marmalade two successive mornings after a night's fast. No food or beverage is allowed for three hours after breakfast. Two weeks after the last breakfast, blood tests are made to measure the occurrence of ^55 Fe and ^59 Fe in blood. Furthermore,the totally absorbed amount of ^59 Fe in the body is measured by a so-called total-body counter Via the ratio of ^59 Fe to ^55 Fe in blood samples, also the totally absorbed amount of ^55 Fe can be determined.
Subsequently, a reference solution is administered, consisting of ^59 Fe-labelled iron(II)sulphate and ascorbic acid at two successive breakfasts after a night's fast. No food or beverage is allowed for three hours thereafter. Another two weeks later, a new total-body measurement is made to measure the absorption of the reference dose. The reference solution is administered to make it possible to carry out corrections with regard to differences in the iron absorbing capability of the different test subjects.
The amount of ^59 Fe which is added as ^59 FeCl3 to the wheat-flour, isotope-labels by so-called isotopic exchange all biologically available nonheme iron (=non-blood iron) in the meals analysed, i.e. on the one hand the native iron and, on the other hand, the part of the fortification iron which is dissolved. However, that part of the fortification iron which is not dissolved in the gastrointestinal tract, is not labelled. […]

[4] = 40 g buns, 0.2 mg native iron, 2.2 mg fortification iron, ten persons

% Solubility 10 min [2] [%] | % Solubility 30 min [2] [%] | % Solubility 60 min [2] [%] | Compound | absorbability / bioavailability [1] | solubility at pH 1 / in 0.1M HCl / gastric environment (in words) [2] | other results
 |  |  | O=P([O-])([O-])[O-].[Fe+3] [iron(III)orthophosphate] | questionable in respect to the bioavailability of iron |  | 
5 | 39 | 72 | Fe3 H8 K(PO4)6 .multidot.6H2 O [Compound E] |  | low initial solubility but reached, after some time, relatively good values | 
70 | 93 | 100 | Fe5 H8 Na4 (PO4)9 .multidot.10H2 O [Compound C] |  | approximately the same good solubility properties as the ammonium-containing compound A | 
86 | 100 | 100 | Fe3 H8 (NH4)(PO4)6 .multidot.6H2 O [Compound A] |  |  | Relative bioavailability 55Fe/59Fe [3, 4]: 0.63 ± 0.04; Absorption, Fortification [3, 4]: 3.3%; bioavailability (in words) ([3]; humans): far better bioavailability than both the commercial fortifying agent which is to date most frequently used, i.e. iron powder, and the known commercial fortifying agent which, in structural respect, is its closest relation, i.e. common iron(III)phosphate
 |  |  | O=S(=O)([O-])[O-].[Fe+2] [iron(II)sulphate] | highest absorbability; also recorded: high bioavailability in the human body |  | 
 |  |  | O=P([O-])([O-])[O-].[Fe+3] [Common iron(III)phosphate, iron(III)phosphate, reference compound] |  |  | Absorption, Fortification ([3]; 60 g buns, 0.5 mg native iron, 3 mg fortification iron, ten persons): 1.1%
82 | 97 | 100 | FeH5 Na(PO4)3 .multidot.H2 O [Compound B] |  | approximately the same good solubility properties as the ammonium-containing compound A | 
61 | 92 | 100 | FeH2 Na(PO4)2 .multidot.0.5H2 O [Compound D] |  | approximately the same good solubility properties as the ammonium-containing compound A | 
 |  |  | O=P([O-])([O-])OP(=O)([O-])O.[Fe+2].[Na+] [sodium iron pyrophosphate] | questionable in respect to the bioavailability of iron |  | 
